Results published in ChEMBL document CHEMBL4806966, “Methods for treating centronuclear myopathy” (2020).
pIC50: −log10 of the molar value. Values belong to the molecule of their own block, whether it stands above or below them.

Assays:
[1] = biological target: T1, Phosphatidylinositol 4-phosphate 3-kinase C2 domain-containing subunit alpha (Homo sapiens, UniProt O00443); test: Inhibition of human PIK3C2A using phosphatidylinositol as substrate and 10 uM ATP after 1 hr by TR-FRET based Adapta universal kinase assay
T1 sequence (O00443 whole entry, the tested form may be a part): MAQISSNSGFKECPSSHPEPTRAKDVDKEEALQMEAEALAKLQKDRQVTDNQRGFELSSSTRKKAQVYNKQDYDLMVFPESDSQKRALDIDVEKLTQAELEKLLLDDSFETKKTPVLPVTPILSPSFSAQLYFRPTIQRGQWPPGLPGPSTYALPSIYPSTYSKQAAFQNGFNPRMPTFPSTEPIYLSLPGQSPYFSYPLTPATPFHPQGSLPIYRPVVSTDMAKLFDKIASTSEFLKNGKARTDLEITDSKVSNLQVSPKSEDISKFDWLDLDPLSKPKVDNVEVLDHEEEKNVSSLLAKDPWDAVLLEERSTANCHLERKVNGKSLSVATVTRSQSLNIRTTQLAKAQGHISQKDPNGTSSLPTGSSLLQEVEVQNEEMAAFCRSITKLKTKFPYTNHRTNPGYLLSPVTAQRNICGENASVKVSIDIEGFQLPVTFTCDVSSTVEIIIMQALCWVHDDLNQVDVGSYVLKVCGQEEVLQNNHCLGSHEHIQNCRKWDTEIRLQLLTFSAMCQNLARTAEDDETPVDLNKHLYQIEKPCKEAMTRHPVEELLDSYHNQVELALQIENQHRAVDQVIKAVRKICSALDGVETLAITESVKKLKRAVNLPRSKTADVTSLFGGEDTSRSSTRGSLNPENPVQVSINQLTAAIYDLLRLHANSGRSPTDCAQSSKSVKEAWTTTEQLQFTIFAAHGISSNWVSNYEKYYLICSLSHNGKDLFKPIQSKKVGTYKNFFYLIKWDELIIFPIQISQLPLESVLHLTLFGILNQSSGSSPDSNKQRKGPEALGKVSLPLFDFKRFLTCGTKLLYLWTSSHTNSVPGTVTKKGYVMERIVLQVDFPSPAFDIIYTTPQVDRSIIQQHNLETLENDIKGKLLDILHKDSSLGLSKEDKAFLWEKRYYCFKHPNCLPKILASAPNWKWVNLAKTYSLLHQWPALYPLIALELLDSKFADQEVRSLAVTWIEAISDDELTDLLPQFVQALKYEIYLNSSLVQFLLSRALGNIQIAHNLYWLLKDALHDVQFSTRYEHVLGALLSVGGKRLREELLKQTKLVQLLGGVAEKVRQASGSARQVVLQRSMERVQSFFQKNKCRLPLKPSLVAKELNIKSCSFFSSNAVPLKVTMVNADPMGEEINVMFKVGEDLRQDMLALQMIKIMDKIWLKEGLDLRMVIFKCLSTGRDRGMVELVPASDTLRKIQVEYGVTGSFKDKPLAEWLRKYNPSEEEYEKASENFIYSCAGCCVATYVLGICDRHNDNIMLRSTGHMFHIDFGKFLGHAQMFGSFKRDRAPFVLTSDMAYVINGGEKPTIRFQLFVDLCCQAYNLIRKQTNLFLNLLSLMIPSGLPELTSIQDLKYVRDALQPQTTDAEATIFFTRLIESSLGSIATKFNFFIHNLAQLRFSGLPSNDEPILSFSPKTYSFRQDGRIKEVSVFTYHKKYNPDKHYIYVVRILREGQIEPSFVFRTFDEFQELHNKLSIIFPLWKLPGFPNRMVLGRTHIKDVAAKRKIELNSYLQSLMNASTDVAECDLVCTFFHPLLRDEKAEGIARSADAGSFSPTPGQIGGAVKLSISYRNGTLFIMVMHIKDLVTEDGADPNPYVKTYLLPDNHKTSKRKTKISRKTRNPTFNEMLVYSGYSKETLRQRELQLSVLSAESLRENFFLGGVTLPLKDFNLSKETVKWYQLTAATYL

[2] = biological target: T1, Phosphatidylinositol 4-phosphate 3-kinase C2 domain-containing subunit alpha; test: Inhibition of human PIK3C2A using phosphatidylinositol as substrate at 20000 nM after 1 hr by TR-FRET based Adapta universal kinase assay relative to control
[3] = biological target: T1, Phosphatidylinositol 4-phosphate 3-kinase C2 domain-containing subunit alpha; test: Inhibition of human PIK3C2A using phosphatidylinositol as substrate at 6667 nM after 1 hr by TR-FRET based Adapta universal kinase assay relative to control
[4] = biological target: T1, Phosphatidylinositol 4-phosphate 3-kinase C2 domain-containing subunit alpha; test: Inhibition of human PIK3C2A using phosphatidylinositol as substrate at 2222 nM after 1 hr by TR-FRET based Adapta universal kinase assay relative to control
[5] = biological target: T1, Phosphatidylinositol 4-phosphate 3-kinase C2 domain-containing subunit alpha; test: Inhibition of human PIK3C2A using phosphatidylinositol as substrate at 741 nM after 1 hr by TR-FRET based Adapta universal kinase assay relative to control
[6] = biological target: T1, Phosphatidylinositol 4-phosphate 3-kinase C2 domain-containing subunit alpha; test: Inhibition of human PIK3C2A using phosphatidylinositol as substrate at 247 nM after 1 hr by TR-FRET based Adapta universal kinase assay relative to control
[7] = biological target: T1, Phosphatidylinositol 4-phosphate 3-kinase C2 domain-containing subunit alpha; test: Inhibition of human PIK3C2A using phosphatidylinositol as substrate at 82 nM after 1 hr by TR-FRET based Adapta universal kinase assay relative to control
[8] = biological target: T1, Phosphatidylinositol 4-phosphate 3-kinase C2 domain-containing subunit alpha; test: Inhibition of human PIK3C2A using phosphatidylinositol as substrate at 27.3 nM after 1 hr by TR-FRET based Adapta universal kinase assay relative to control
[9] = biological target: T1, Phosphatidylinositol 4-phosphate 3-kinase C2 domain-containing subunit alpha; test: Inhibition of human PIK3C2A using phosphatidylinositol as substrate at 9.1 nM after 1 hr by TR-FRET based Adapta universal kinase assay relative to control
[10] = biological target: T1, Phosphatidylinositol 4-phosphate 3-kinase C2 domain-containing subunit alpha; test: Inhibition of human PIK3C2A using phosphatidylinositol as substrate at 3.03 nM after 1 hr by TR-FRET based Adapta universal kinase assay relative to control
[11] = biological target: Phosphatidylinositol 4-phosphate 3-kinase C2 domain-containing subunit beta (Homo sapiens) (UniProt O00750); test: Inhibition of human PIK3C2B using phosphatidylinositol as substrate at 1000 nM after 1 hr by TR-FRET based Adapta universal kinase assay
Chain of Phosphatidylinositol 4-phosphate 3-kinase C2 domain-containing subunit beta (Homo sapiens) (O00750 whole entry, the tested form may be a part): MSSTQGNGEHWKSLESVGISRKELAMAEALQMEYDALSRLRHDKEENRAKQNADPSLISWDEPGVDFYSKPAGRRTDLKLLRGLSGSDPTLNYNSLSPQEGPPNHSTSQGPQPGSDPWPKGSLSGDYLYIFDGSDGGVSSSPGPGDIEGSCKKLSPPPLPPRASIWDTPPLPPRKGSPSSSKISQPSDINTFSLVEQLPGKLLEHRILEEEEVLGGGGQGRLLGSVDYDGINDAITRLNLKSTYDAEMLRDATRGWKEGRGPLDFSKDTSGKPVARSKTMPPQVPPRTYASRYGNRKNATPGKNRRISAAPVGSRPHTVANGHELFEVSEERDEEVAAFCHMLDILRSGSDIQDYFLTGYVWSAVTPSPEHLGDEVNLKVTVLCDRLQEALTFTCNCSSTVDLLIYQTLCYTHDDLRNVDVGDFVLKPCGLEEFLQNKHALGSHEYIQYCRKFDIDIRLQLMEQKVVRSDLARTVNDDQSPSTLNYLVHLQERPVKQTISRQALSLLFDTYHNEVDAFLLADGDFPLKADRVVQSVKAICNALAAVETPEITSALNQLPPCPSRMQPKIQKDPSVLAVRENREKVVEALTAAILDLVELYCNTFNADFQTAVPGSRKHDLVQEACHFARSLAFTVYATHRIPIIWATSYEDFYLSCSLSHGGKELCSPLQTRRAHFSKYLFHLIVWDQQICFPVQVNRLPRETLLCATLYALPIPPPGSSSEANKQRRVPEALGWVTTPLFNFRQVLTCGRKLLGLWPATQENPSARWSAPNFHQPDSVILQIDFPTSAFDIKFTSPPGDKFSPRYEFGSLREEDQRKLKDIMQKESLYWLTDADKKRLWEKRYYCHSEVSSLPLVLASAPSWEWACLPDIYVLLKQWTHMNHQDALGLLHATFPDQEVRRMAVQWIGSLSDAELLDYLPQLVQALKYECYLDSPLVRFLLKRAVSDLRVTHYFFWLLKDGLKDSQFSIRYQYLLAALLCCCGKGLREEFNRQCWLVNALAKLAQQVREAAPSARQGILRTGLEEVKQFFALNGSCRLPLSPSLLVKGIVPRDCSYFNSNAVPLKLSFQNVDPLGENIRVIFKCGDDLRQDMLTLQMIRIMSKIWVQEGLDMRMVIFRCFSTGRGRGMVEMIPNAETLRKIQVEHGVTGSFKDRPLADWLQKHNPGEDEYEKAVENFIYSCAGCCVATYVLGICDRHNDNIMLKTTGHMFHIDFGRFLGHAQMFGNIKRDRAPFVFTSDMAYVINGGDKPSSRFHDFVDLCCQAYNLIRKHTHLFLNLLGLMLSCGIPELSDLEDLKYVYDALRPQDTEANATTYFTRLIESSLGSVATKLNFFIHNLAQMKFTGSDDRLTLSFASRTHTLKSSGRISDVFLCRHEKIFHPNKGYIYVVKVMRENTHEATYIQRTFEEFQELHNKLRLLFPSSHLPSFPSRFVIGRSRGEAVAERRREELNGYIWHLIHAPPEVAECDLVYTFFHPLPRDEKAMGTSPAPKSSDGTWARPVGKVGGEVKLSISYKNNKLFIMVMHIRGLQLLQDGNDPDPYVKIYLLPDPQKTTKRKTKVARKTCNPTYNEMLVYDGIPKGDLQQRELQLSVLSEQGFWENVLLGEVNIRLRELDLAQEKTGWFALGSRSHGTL

[12] = biological target: Phosphatidylinositol 4-phosphate 3-kinase C2 domain-containing subunit beta (Homo sapiens) (UniProt O00750); test: Inhibition of human PIK3C2B using phosphatidylinositol as substrate at 333 nM after 1 hr by TR-FRET based Adapta universal kinase assay
[13] = biological target: Phosphatidylinositol 4-phosphate 3-kinase C2 domain-containing subunit beta (Homo sapiens) (UniProt O00750); test: Inhibition of human PIK3C2B using phosphatidylinositol as substrate at 111 nM after 1 hr by TR-FRET based Adapta universal kinase assay
[14] = biological target: Phosphatidylinositol 4-phosphate 3-kinase C2 domain-containing subunit beta (Homo sapiens) (UniProt O00750); test: Inhibition of human PIK3C2B using phosphatidylinositol as substrate at 37 nM after 1 hr by TR-FRET based Adapta universal kinase assay
[15] = biological target: Phosphatidylinositol 4-phosphate 3-kinase C2 domain-containing subunit beta (Homo sapiens) (UniProt O00750); test: Inhibition of human PIK3C2B using phosphatidylinositol as substrate at 12.3 nM after 1 hr by TR-FRET based Adapta universal kinase assay
[16] = biological target: Phosphatidylinositol 4-phosphate 3-kinase C2 domain-containing subunit beta (Homo sapiens) (UniProt O00750); test: Inhibition of human PIK3C2B using phosphatidylinositol as substrate at 4.1 nM after 1 hr by TR-FRET based Adapta universal kinase assay
[17] = biological target: Phosphatidylinositol 4-phosphate 3-kinase C2 domain-containing subunit beta (Homo sapiens) (UniProt O00750); test: Inhibition of human PIK3C2B using phosphatidylinositol as substrate at 1.37 nM after 1 hr by TR-FRET based Adapta universal kinase assay
[18] = biological target: Phosphatidylinositol 4-phosphate 3-kinase C2 domain-containing subunit beta (Homo sapiens) (UniProt O00750); test: Inhibition of human PIK3C2B using phosphatidylinositol as substrate at 0.46 nM after 1 hr by TR-FRET based Adapta universal kinase assay
[19] = biological target: Phosphatidylinositol 4-phosphate 3-kinase C2 domain-containing subunit beta (Homo sapiens) (UniProt O00750); test: Inhibition of human PIK3C2B using phosphatidylinositol as substrate at 0.153 nM after 1 hr by TR-FRET based Adapta universal kinase assay
[20] = biological target: Phosphatidylinositol 4-phosphate 3-kinase C2 domain-containing subunit beta (Homo sapiens) (UniProt O00750); test: Inhibition of human PIK3C2B using phosphatidylinositol as substrate at 0.051 nM after 1 hr by TR-FRET based Adapta universal kinase assay
Homo sapiens [21] = organism: Homo sapiens; test: Selectivity index, ratio of IC50 for human PIK3C2A to IC50 for human PIK3C2B
[22] = biological target: Phosphatidylinositol 4,5-bisphosphate 3-kinase catalytic subunit beta isoform (Homo sapiens, UniProt P42338); test: Inhibition of PI3Kbeta (unknown origin)
Chain of Phosphatidylinositol 4,5-bisphosphate 3-kinase catalytic subunit beta isoform (P42338 whole entry, canonical isoform): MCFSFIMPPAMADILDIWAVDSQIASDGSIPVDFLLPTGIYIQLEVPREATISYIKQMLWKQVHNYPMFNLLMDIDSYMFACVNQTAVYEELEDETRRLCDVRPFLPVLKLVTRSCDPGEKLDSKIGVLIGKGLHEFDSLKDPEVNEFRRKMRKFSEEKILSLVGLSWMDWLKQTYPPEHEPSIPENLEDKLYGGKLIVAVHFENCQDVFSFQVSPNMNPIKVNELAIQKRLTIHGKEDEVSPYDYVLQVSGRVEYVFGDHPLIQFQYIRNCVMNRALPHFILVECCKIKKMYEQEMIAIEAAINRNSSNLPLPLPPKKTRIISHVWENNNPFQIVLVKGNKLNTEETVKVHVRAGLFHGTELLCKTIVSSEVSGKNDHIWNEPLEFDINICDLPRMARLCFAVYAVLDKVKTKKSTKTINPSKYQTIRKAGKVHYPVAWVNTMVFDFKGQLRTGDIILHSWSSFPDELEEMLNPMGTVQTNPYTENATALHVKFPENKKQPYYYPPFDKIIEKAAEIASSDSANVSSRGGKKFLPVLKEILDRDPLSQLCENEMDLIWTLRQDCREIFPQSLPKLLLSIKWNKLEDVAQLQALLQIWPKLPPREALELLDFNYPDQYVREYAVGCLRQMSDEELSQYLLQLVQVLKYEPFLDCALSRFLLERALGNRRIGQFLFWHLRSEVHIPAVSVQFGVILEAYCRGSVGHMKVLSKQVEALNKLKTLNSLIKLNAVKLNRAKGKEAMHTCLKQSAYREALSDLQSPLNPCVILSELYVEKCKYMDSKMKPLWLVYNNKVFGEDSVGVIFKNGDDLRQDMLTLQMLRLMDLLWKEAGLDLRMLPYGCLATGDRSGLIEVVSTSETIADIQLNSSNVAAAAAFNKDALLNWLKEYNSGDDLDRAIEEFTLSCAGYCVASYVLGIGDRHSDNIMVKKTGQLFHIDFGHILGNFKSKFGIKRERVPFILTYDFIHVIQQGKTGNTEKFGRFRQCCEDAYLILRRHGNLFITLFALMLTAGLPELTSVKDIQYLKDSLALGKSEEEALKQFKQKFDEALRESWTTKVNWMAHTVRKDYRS

Homo sapiens [23] = organism: Homo sapiens; test: Selectivity index, ratio of IC50 for human PIK3C2B to IC50 for PI3Kbeta (unknown origin)

pIC50 [1]: 5.02 | inhibition [2]: 78% | inhibition [3]: 46% | inhibition [4]: 36% | inhibition [5]: 17% | inhibition [6]: 6% | inhibition [7]: 0% | inhibition [8]: -4% | inhibition [9]: -3% | inhibition [10]: -3% | inhibition [11]: 93% | inhibition [12]: 93% | inhibition [13]: 90% | inhibition [14]: 74% | inhibition [15]: 49% | inhibition [16]: 27% | inhibition [17]: 21% | inhibition [18]: 10% | inhibition [19]: -3% | inhibition [20]: 16% | Ratio IC50 (Homo sapiens [21]): 449
SMILES: CN(C)C(=O)c1ccc2c(c1)c(C[C@H]1COCCN1c1nc3c(s1)C(=O)NC(C)(C)C3)cn2C

pIC50 [22]: 7.80 | Ratio IC50 (Homo sapiens [23]): 6
SMILES: Cc1c(Cn2c(C)nc(=O)c3sc(N4CCOCC4)nc32)cccc1C(F)(F)F
